For 4 molecules, IC50 results are on record in US20090143455A1, “Pyrazoles Useful in the Treatment of Inflammation” (priority 2005, published 2009).

The experiment concerns the target T1, purified human 15-lipoxygenase (Homo sapiens, UniProt P16050).
T1 sequence (P16050 1-662): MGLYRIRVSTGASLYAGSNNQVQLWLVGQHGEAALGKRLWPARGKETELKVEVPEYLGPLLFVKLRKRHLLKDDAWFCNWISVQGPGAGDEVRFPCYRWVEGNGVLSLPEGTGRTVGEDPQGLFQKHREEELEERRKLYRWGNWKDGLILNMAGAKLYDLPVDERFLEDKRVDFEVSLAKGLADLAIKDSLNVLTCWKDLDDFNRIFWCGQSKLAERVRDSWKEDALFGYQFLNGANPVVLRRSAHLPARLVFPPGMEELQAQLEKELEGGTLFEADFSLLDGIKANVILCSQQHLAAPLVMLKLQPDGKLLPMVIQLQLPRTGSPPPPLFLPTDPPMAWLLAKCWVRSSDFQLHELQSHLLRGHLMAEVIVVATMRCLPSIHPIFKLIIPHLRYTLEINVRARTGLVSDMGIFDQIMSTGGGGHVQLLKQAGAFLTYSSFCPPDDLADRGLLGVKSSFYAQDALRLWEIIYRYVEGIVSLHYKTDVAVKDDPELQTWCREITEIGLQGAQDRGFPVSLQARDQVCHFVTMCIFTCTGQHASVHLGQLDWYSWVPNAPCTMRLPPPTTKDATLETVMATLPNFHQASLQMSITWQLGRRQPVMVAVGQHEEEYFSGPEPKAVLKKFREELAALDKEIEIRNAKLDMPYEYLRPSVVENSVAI
Briefly: 15-lipoxygenase inhibition assay (arachidonic acid oxidation, HPLC readout). Conditions: arachidonic acid substrate, room temperature. The experiment is classed as biochemical. How it is done:
The assay employed takes advantage of the ability of lipoxygenases to oxidize polyunsaturated fatty acids, containing a 1,4-cis-pentadiene configuration, to their corresponding hydroperoxy or hydroxyl derivatives. In this particular assay, the lipoxygenase was a purified human 15-lipoxygenase and the fatty acid was arachidonic acid. The assay is performed at room temperature (20-22° C.) and the following are added to each well in a 96-well microtiter plate:
a) 35 μL phosphate buffered saline […] (pH 7.4); b) inhibitor (i.e. compound) or vehicle (0.5 μl DMSO); c) 10 μL of a 10× concentrated solution of 15-lipoxygenase in PBS. […] The plate is then incubated for 10 minutes at room temperature; e) the enzymatic reaction is terminated by the addition of 100 μl MeOH; and f) the amount of 15-hydroperoxy-eicosatetraenoic acid or 15-hydroxy-eicosatetraenoic acid is measured by reverse phase HPLC.

As a reminder, the IC50 is the concentration needed to halve the response being measured. High values mean weaker potency in that assay, low ones greater potency in that assay. `O=C(Nc1ccc(F)cc1F)c1cc(Cl)[nH]n1` [Example 5, 5-Chloro-N-(2,4-difluorophenyl)pyrazole-3-carboxamide] gave a 50% inhibitory concentration (IC50) of 265 nM. With `O=C(Nc1ccc(F)cc1)c1cc(Cl)[nH]n1` [Example 7, 5-Chloro-N-(4-fluorophenyl)pyrazole-3-carboxamide] the figure was 182 nM; with `O=C(Nc1ccc(Cl)cc1)c1cc(Cl)[nH]n1` [Example 8, 5-Chloro-N-(4-chlorophenyl)pyrazole-3-carboxamide], 78 nM. Regarding `O=C(Nc1ccccc1OC(F)F)c1cc(Cl)[nH]n1` [Example 19, 5-Chloro-N-(2-difluoro-methoxyphenyl)pyrazole-3-carboxamide], the IC50 worked out at 69 nM.
